# US11452717B2, “Small molecule activators of nicotinamide phosphoribosyltransferase (NAMPT) and uses thereof” (Sanford Burnham Prebys Medical Discovery Institute, priority 2017, dated 2022)
# Where “and” joins values, the source holds several entries; their conditions need not be identical. Equal values may be shown once.
# Target: NAMPT enzyme (Homo sapiens (Human), UniProt P43490)
# Assay: Enzyme Assay and NMN Detection (NAMPT reaction, fluorescence detection of NMN)
# Format: biochemical
# Settings: Table B-2; NAMPT activation, NMN formation
# Procedure: NAMPT reaction was performed in 50 mM HEPES, pH 7.5, containing 5 mM MgCl2, 0.1% Prionex, 0.005% Tween 20, and 1 mM TCEP at room temperature in Greiner 384-well black polypropylene plates. The concentration of substrates and enzymes in the final assay were as follows: ATP (120 uM), nicotinamide (5 uM), phosphoribosylpyrophosphate (6.25 uM), NAMPT enzyme (16 nM), pyrophosphatase (0.04 U/ml) in the final reaction volume 6 uL. Following 2 h incubation the reaction was stopped by addition 2.5 ul 20% acetophenone in dimethyl sulfoxide (DMSO) and 2.5 ul 2 MKOH. Plates were centrifuges and added with 10.5 ul 88% formic acid. The fluorescence (ex380/em460) was measured following another short incubation and 30 min incubation. The increased concentration of NMN was determined from a calibration curve obtained at the time of experiment.
# Chain of NAMPT enzyme (P43490 whole entry, species assumed): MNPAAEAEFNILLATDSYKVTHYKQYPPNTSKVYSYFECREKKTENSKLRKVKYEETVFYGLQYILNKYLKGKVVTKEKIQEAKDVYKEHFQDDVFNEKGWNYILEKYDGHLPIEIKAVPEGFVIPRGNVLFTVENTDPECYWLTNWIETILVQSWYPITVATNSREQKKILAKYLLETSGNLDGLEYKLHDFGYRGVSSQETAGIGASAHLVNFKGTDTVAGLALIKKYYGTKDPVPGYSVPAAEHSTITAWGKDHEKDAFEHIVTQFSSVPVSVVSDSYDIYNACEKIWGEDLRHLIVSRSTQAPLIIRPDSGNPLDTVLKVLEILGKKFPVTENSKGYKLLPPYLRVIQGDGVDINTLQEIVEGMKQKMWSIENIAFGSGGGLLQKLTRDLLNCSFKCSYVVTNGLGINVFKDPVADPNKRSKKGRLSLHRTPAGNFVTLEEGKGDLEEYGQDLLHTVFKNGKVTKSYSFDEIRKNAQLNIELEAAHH
row,Compound,EC50
1,O=C(NCc1ccncc1)Nc1ccc(NS(=O)(=O)Cc2ccccc2Cl)cc1 [1-(2-chlorophenyl)-N-(4-(3-(pyridin-4-ylmethyl)ureido)phenyl)methanesulfonamide],< 0.1 µM
2,O=C(NCc1ccncc1)Nc1cccc(S(=O)(=O)N2CCOCC2)c1 [1-(3-(morpholinosulfonyl)phenyl)-3-(pyridin-4-ylmethyl)urea],> 20 µM

# Results, then the compound that gave them:
row,EC50,Compound
1,< 0.1 µM,O=C(NCc1ccncc1)Nc1ccc(NS(=O)(=O)Cc2cccc(Cl)c2)cc1 [1-(3-chlorophenyl)-N-(4-(3-(pyridin-4-ylmethyl)ureido)phenyl)methanesulfonamide]
2,5 to 20 µM,CN1CCN(C(=O)c2ccc(NC(=O)NCc3ccncc3)cc2)CC1 [1-(4-(4-Methylpiperazine-1-carbonyl)phenyl)-3-(pyridin-4-ylmethyl)urea]
3,0.1 to 2 µM,O=C(NCc1ccncc1)Nc1ccc(C(=O)N2CC3CCC(C2)O3)cc1 [1-(4-(8-Oxa-3-azabicyclo[3.2.1]octane-3-carbonyl)phenyl)-3-(pyridin-4-ylmethyl)urea]

# Same assay, conditions: Table B-4; NAMPT activation, NMN formation
row,EC50,Compound
1,0.1 to 2 µM,O=C(NCc1cn[nH]c1)Nc1ccc(S(=O)(=O)c2ccccc2-c2cccnc2)cc1 [1-(1H-Pyrazol-4-ylmethyl)-3-[4-(2-pyridin-3-yl-benzenesulfonyl)-phenyl]-urea]
2,0.1 to 2 µM,O=C(NCc1cn[nH]c1)Nc1ccc(S(=O)(=O)c2ccccc2-c2ccncc2)cc1 [1-(1H-Pyrazol-4-ylmethyl)-3-[4-(2-pyridin-4-yl-benzenesulfonyl)-phenyl]-urea]
3,< 0.1 µM,O=C(NCc1cn[nH]c1)Nc1ccc(S(=O)(=O)c2ccccc2OC(F)(F)F)cc1 [1-(1H-Pyrazol-4-ylmethyl)-3-[4-(2-trifluoromethoxy-benzenesulfonyl)-phenyl]-urea]
4,0.1 to 2 µM,O=C(NCc1cn[nH]c1)Nc1ccc(S(=O)(=O)c2ccccc2C(F)(F)F)cc1 [1-(1H-Pyrazol-4-ylmethyl)-3-[4-(2-trifluoromethyl-benzenesulfonyl)-phenyl]-urea]
5,< 0.1 µM,O=C(NCc1cn[nH]c1)Nc1ccc(S(=O)(=O)c2cccc(OC(F)(F)F)c2)cc1 [1-(1H-Pyrazol-4-ylmethyl)-3-[4-(3-trifluoromethoxy-benzenesulfonyl)-phenyl]-urea]
6,0.1 to 2 µM,Cc1cccc(-c2csc(Nc3ccc(NC(=O)NCc4cn[nH]c4)cc3)n2)c1 [1-(1H-Pyrazol-4-ylmethyl)-3-[4-(4-m-tolyl-thiazol-2-ylamino)-phenyl]-urea]
7,0.1 to 2 µM,Cc1ccccc1-c1csc(Nc2ccc(NC(=O)NCc3cn[nH]c3)cc2)n1 [1-(1H-Pyrazol-4-ylmethyl)-3-[4-(4-o-tolyl-thiazol-2-ylamino)-phenyl]-urea]
8,2 to 5 µM,Cc1ccc(-c2csc(Nc3ccc(NC(=O)NCc4cn[nH]c4)cc3)n2)cc1 [1-(1H-Pyrazol-4-ylmethyl)-3-[4-(4-p-tolyl-thiazol-2-ylamino)-phenyl]-urea]
9,0.1 to 2 µM,O=C(NCc1cn[nH]c1)Nc1ccc(S(=O)(=O)c2ccc(OC(F)(F)F)cc2)cc1 [1-(1H-Pyrazol-4-ylmethyl)-3-[4-(4-trifluoromethoxy-benzenesulfonyl)-phenyl]-urea]
10,0.1 to 2 µM,O=C(NCc1cn[nH]c1)Nc1ccc(S(=O)(=O)c2cccnc2)cc1 [1-(1H-Pyrazol-4-ylmethyl)-3-[4-(pyridine-3-sulfonyl)-phenyl]-urea]
11,2 to 5 µM,O=C(NCc1cn[nH]c1)Nc1ccc(S(=O)(=O)c2ncccn2)cc1 [1-(1H-Pyrazol-4-ylmethyl)-3-[4-(pyrimidine-2-sulfonyl)-phenyl]-urea]
12,2 to 5 µM and 0.1 to 2 µM,O=C(NCc1cn[nH]c1)Nc1ccc(S(=O)(=O)c2nccs2)cc1 [1-(1H-Pyrazol-4-ylmethyl)-3-[4-(thiazole-2-sulfonyl)-phenyl]-urea]
13,< 0.1 µM,Cc1ccccc1S(=O)(=O)c1ccc(NC(=O)NCc2cn[nH]c2)cc1 [1-(1H-Pyrazol-4-ylmethyl)-3-[4-(toluene-2-sulfonyl)-phenyl]-urea]
14,0.1 to 2 µM,Cc1cccc(S(=O)(=O)c2ccc(NC(=O)NCc3cn[nH]c3)cc2)c1 [1-(1H-Pyrazol-4-ylmethyl)-3-[4-(toluene-3-sulfonyl)-phenyl]-urea]
15,0.1 to 2 µM,Cc1ccc(S(=O)(=O)c2ccc(NC(=O)NCc3cn[nH]c3)cc2)cc1 [1-(1H-Pyrazol-4-ylmethyl)-3-[4-(toluene-4-sulfonyl)-phenyl]-urea]
16,0.1 to 2 µM,O=C(NCc1cn[nH]c1)Nc1ccc(S(=O)(=O)C2CCN(C3CCOCC3)CC2)cc1 [1-(1H-Pyrazol-4-ylmethyl)-3-{4-[1-(tetrahydro-pyran-4-yl)-piperidine-4-sulfonyl]-phenyl}-urea]

# Same assay, conditions: Table B-5; NAMPT activation, NMN formation
row,Compound,EC50
1,O=C(NCc1cnco1)Nc1ccc(NS(=O)(=O)Cc2ccccc2Cl)cc1 [1-(2-Chlorophenyl)-N-(4-(3-(oxazol-5-ylmethyl)ureido)phenyl)methanesulfonamide],< 0.1 µM
2,"O=C(NCc1cnco1)Nc1ccc(NS(=O)(=O)Cc2ccc(Cl)c(Cl)c2)cc1 [1-(3,4-Dichlorophenyl)-N-(4-(3-(oxazol-5-ylmethyl)ureido)phenyl)methanesulfonamide]",< 0.1 µM

# Now from value to compound:
row,EC50,Compound
1,< 0.1 µM,O=C(NCc1cnco1)Nc1ccc(NS(=O)(=O)Cc2cccc(Cl)c2)cc1 [1-(3-Chlorophenyl)-N-(4-(3-(oxazol-5-ylmethyl)ureido)phenyl)methanesulfonamide]
2,5 to 20 µM,"Cc1ccc2c(c1)c(-c1ccc(NC(=O)NCc3cnco3)cc1)nn2C [1-(4-(1,5-Dimethyl-1H-indazol-3-yl)phenyl)-3-(oxazol-5-ylmethyl)urea]"
3,2 to 5 µM,"Cc1cccc2c(-c3ccc(NC(=O)NCc4cnco4)cc3)nn(C)c12 [1-(4-(1,7-Dimethyl-1H-indazol-3-yl)phenyl)-3-(oxazol-5-ylmethyl)urea]"
4,5 to 20 µM,O=C(NCc1cnco1)Nc1ccc(-c2ncc(Cc3ccccc3)s2)cc1 [1-(4-(5-Benzylthiazol-2-yl)phenyl)-3-(oxazol-5-ylmethyl)urea]
5,0.1 to 2 µM,Cn1nc(-c2ccc(NC(=O)NCc3cnco3)cc2)c2cc(Cl)ccc21 [1-(4-(5-Chloro-1-methyl-1H-indazol-3-yl)phenyl)-3-(oxazol-5-ylmethyl)urea]
6,0.1 to 2 µM,O=C(NCc1cnco1)Nc1ccc(S(=O)(=O)c2cn[nH]c2)cc1 [1-(4-((1H-pyrazol-4-yl)sulfonyl)phenyl)-3-(oxazol-5-ylmethyl)urea]
7,0.1 to 2 µM,O=C(NCc1cnco1)Nc1ccc(S(=O)(=O)c2ccccc2F)cc1 [1-(4-((2-Fluorophenyl)sulfonyl)phenyl)-3-(oxazol-5-ylmethyl)urea]
8,0.1 to 2 µM,COc1ccccc1S(=O)(=O)c1ccc(NC(=O)NCc2cnco2)cc1 [1-(4-((2-Methoxyphenyl)sulfonyl)phenyl)-3-(oxazol-5-ylmethyl)urea]
9,< 0.1 µM,O=C(NCc1cnco1)Nc1ccc(S(=O)(=O)c2cccc(Cl)c2)cc1 [1-(4-((3-Chlorophenyl)sulfonyl)phenyl)-3-(oxazol-5-ylmethyl)urea]
10,0.1 to 2 µM,O=C(NCc1cnco1)Nc1ccc(S(=O)(=O)c2cccc(F)c2)cc1 [1-(4-((3-Fluorophenyl)sulfonyl)phenyl)-3-(oxazol-5-ylmethyl)urea]

# Same assay, conditions: Table B-6; NAMPT activation, NMN formation
row,Compound,EC50
1,O=C(NCc1cn[nH]c1)Nc1ccc(S(=O)(=O)C2CCN(C3CCOCC3)CC2)cc1 [1-(1H-Pyrazol-4-ylmethyl)-3-{4-[1-(tetrahydro-pyran-4-yl)-piperidine-4-sulfonyl]-phenyl}-urea],0.1 to 2 µM
2,"O=C(NCc1ccncc1)Nc1ccc(S(=O)(=O)c2ccccc2-c2ccccc2Cl)cc1 [1-(4-((2′-Chloro-[1,l′-biphenyl]-2-yl)sulfonyl)phenyl)-3-(pyridin-4-ylmethyl)urea]",0.1 to 2 µM
3,"Cc1ccccc1-c1ccccc1S(=O)(=O)c1ccc(NC(=O)NCc2ccncc2)cc1 [1-(4-((2′-Methyl-[1,l′-biphenyl]-2-yl)sulfonyl)phenyl)-3-(pyridin-4-ylmethyl)urea]",0.1 to 2 µM

# Second part, the compound after the results:
row,EC50,Compound
1,0.1 to 2 µM,"N#Cc1cc(NC(=O)NCc2ccncc2)ccc1S(=O)(=O)c1cc(F)cc(F)c1 [1-(3-Cyano-4-((3,5-difluorophenyl)sulfonyl)phenyl)-3-(pyridin-4-ylmethyl)urea]"
2,0.1 to 2 µM,"Cc1cccc2c1c(-c1ccc(NC(=O)NCc3ccncc3)cc1)nn2C [1-(4-(1,4-Dimethyl-1H-indazol-3-yl)phenyl)-3-(pyridin-4-ylmethyl)urea]"
3,0.1 to 2 µM,"Cc1ccc2c(c1)c(-c1ccc(NC(=O)NCc3ccncc3)cc1)nn2C [1-(4-(1,5-Dimethyl-1H-indazol-3-yl)phenyl)-3-(pyridin-4-ylmethyl)urea]"
4,0.1 to 2 µM,"Cc1cccc2c(-c3ccc(NC(=O)NCc4ccncc4)cc3)nn(C)c12 [1-(4-(1,7-Dimethyl-1H-indazol-3-yl)phenyl)-3-(pyridin-4-ylmethyl)urea]"
5,0.1 to 2 µM,"Cn1nc(-c2ccc(NC(=O)NCc3ccncc3)cc2)c2ccncc21 [1-(4-(1-Methyl-1H-pyrazolo[3,4-c]pyridin-3-yl)phenyl)-3-(pyridin-4-ylmethyl)urea]"
6,5 to 20 µM,O=C(NCc1ccncc1)Nc1ccc(-c2ncc(Cc3ccccc3)s2)cc1 [1-(4-(5-Benzylthiazol-2-yl)phenyl)-3-(pyridin-4-ylmethyl)urea]
7,2 to 5 µM,Cn1nc(-c2ccc(NC(=O)NCc3ccncc3)cc2)c2cc(Cl)ccc21 [1-(4-(5-Chloro-1-methyl-1H-indazol-3-yl)phenyl)-3-(pyridin-4-ylmethyl)urea]
8,0.1 to 2 µM,O=C(NCc1ccncc1)Nc1ccc(S(=O)(=O)c2cn[nH]c2)cc1 [1-(4-((1H-pyrazol-4-yl)sulfonyl)phenyl)-3-(pyridin-4-ylmethyl)urea]
9,5 to 20 µM,COc1ccc(-c2ccccc2S(=O)(=O)c2ccc(NC(=O)NCc3ccncc3)cc2)cn1 [1-(4-((2-(6-Methoxypyridin-3-yl)phenyl)sulfonyl)phenyl)-3-(pyridin-4-ylmethyl)urea]
10,0.1 to 2 µM,O=C(NCc1ccncc1)Nc1ccc(S(=O)(=O)c2ccccc2F)cc1 [1-(4-((2-Fluorophenyl)sulfonyl)phenyl)-3-(pyridin-4-ylmethyl)urea]
